This is an account of results in article doi:10.1101/2025.08.13.670122v1 (bioRxiv, 2025).

In general, EC50 refers to the concentration that produces a half-maximal response.

In assay [1] the target is T1, endogenous AT1R (Rattus norvegicus, UniProt P25095).
T1 construct: expressing low levels of endogenous AT1R; endogenous in cells; host or cells: rat primary VSMC, passages 13-15
T1 sequence (P25095 1-359): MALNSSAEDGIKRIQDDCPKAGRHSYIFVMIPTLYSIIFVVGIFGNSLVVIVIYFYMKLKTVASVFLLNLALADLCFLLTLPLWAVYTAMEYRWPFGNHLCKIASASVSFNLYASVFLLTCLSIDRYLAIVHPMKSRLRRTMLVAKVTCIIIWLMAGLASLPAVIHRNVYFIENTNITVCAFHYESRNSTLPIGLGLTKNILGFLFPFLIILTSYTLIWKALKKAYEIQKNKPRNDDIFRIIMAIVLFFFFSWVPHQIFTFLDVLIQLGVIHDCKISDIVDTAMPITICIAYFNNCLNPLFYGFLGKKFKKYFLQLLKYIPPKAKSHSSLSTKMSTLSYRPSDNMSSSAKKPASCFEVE
As to the kind of experiment: PKC BRET sensor in rat primary VSMC with endogenous AT1R. Type of assay: cell-based. The following applies: for Emax PKC in VSMCs (% AngII): PKC sensor, for 12 and TRV027 response at 10 μM; for EC50: adenoviral PKC BRET sensor, 1 min stimulation, mean ± SEM of at least three to five independent experiments, read-out: EC50 PKC in VSMCs. The text has this:
(§1) We next assessed the analogs’ ability to engage Gαq by assessing either the PKC or Rho responses in rat primary vascular smooth muscle cell (VSMC) culture, expressing low levels of endogenous AT1R (between 25–50 fmol/mg) (Figure 4, Table 6).
(§2) The coding regions of the PKC-c1b sensor, PKN-RBD-RlucII, and rGFPcaax were PCR-amplified and subcloned into the KpnI/XhoI sites of the pENTR3C vector (Invitrogen), respectively. These were then transferred into the adenoviral expression vector pAd/CMV/V5-DEST (Invitrogen), via gateway cloning (pAD-CMV-PKC-c1b, pAD-CMV-PKN-RBD-RLucII, and pAD-CMV-rGFPcaax). Viruses containing the sensor codes were generated following a previously outlined process.[49] […] The following day, cells were transfected with 4 µg of PacI-digested pAd5-CMVsensors using Lipofectamine 2000 (Invitrogen). After 7–10 days post-transfection, mature virus particles were gleaned via the collection of cells and media, which then underwent multiple cycles of freezing and thawing, followed by centrifugation. The harvested virus was amplified by re-infection on 100-mm dishes of confluent HEK293A cells, and harvested 48-72 h later. Viral titers were determined by serial dilution of adenovirus stock and subsequent infection of HEK293A cells in 96-well plates. 36 h after infection, cells were stained using an anti-hexon antibody (ab8249; Abcam), and hexon-expressing cells were tallied via fluorescence microscopy. The virus was then stored at −80°C. After this, rat VSMCs (between the 13th to 15th passages) were seeded at a density of 20,000 cells in each well of white 96-well plates 24 h before transduction with the viral vector. The cells were then transduced with the PKC sensor-adenovirus (3 μL per well) or Rho sensor (1 μL each per well of PKN-RBD-RLucII-adnovirus and rGFP-caax adenovirus). After 24 h, the medium was replaced. 48 h post-viral transduction, the cells were thoroughly washed with Tyrode’s buffer. Finally, BRET assays were carried out as detailed below.
(§3) On the day of the experiment, each well was washed with 80 µL of Tyrode’s buffer (140 mM NaCl, 2.7 mM KCl, 1 mM CaCl2, 12 mM NaHCO3, 5.6 mM D-glucose, 0.5 mM MgCl2, 0.37 mM NaH2PO4, 25 mM Hepes (pH 7.4)). This was followed by incubation for 1 h in Tyrode’s buffer at room temperature. For the Gαq, β-arrestin-2, and PKC biosensors used in HEK293 cells, coelenterazine 400A (at a final concentration of 5 μM) was added 10 min before stimulation. Cells were then stimulated with increasing doses of the indicated ligand, and BRET signals were measured using a Tristar2 (Berthold) microplate reader 10 min later. For the PKC and Rho biosensors in VSMCs, and the Rho biosensor in ΔG12/13 cells, cells were similarly stimulated with ligands for 1 min, 1 min 30 s, and 3 min, respectively, before BRET measurement. […] BRET signals were then measured using a Synergy2 (BioTek) microplate reader. The applied filter set was 410/80 nm and 515/30 nm, designed to detect the light emissions of RlucII (Renilla luciferase) (donor) and rGFP (acceptor), respectively.

The target in assay [2] is T1, endogenous AT1R. Nature of the assay: Rho BRET sensor in rat primary VSMC with endogenous AT1R. The class given is cell-based. As to conditions: for Emax Rho in VSMCs (% AngII): Rho sensor, for 12 and TRV027 response at 10 μM; for EC50: adenoviral Rho BRET sensor, 1 min 30 s stimulation, mean ± SEM of at least three to five independent experiments, read-out: EC50 Rho in VSMCs.
Description: as §1, §2, §3
For orientation: BRET reads energy transfer from a luciferase to a nearby fluorophore.

Assay [3] has as its target T2, AT1R (Homo sapiens, UniProt P30556).
T2 sequence (P30556 1-359): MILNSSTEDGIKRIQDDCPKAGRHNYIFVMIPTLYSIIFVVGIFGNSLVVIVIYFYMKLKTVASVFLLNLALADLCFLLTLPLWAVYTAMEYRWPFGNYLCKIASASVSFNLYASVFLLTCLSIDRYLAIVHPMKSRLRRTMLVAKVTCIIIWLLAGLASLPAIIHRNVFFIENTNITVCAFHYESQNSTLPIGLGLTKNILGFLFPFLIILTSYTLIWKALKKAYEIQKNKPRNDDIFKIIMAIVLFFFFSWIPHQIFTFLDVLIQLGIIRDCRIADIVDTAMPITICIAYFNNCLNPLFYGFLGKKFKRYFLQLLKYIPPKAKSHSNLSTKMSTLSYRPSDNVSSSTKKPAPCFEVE
As to the kind of experiment: 125I-AngII displacement binding on HEK293 cells expressing human AT1R. Details: expressed in transfected cells; host or cells: HEK293 cells, transient; freeze-thaw broken cells. The following applies: SEM; read-out: Ki (apparent affinity). As for the experimental part:
HEK293 cells, transiently expressing the human AT1R (3 million cells transfected with 4 μg of AT1R plasmid), were washed once with PBS and submitted to one freeze-thaw cycle. […] Binding assays were carried out in 96-well plates. […] The incubation mixtures were filtered through binding plates (MultiScreen HTS, Merck Millipore, Cork, Ireland) and preincubated with the washing buffer for 1 h at 4°C to remove unbound ligands. The filtered membranes were washed thrice with 200 µL cold binding buffer (4°C). The filters with membranes were retrieved with punch tips (Filter Plates Punch Tips, Merck Millipore, Cork, Ireland). […] The dissociation constant (Ki value) was determined from the IC50 using the Cheng-Prusoff equation and presented as a mean ± SEM of three independent experiments, each conducted in duplicate. VSMC cells were seeded at 80,000 cells per well in poly-ornithine-coated 24-wells. […] The next day, cells were washed thrice with ice-cold PBS, solubilized in 0.5 mL of 0.2 M NaOH/0.05% SDS, and bound radioactivity was counted using a PerkinElmer Wizard 1470 automatic γ-counter. Protein quantities were evaluated using a Bradford assay.

Each structure is given as a SMILES string.

Turning to `CC[C@H](C)[C@H](NC(=O)[C@H](Cc1ccc(O)cc1)NC(=O)[C@@H](NC(=O)[C@H](CCCNC(=N)N)NC(=O)[C@@H](N)CC(=O)O)C(C)C)C(=O)N[C@@H](Cc1c[nH]cn1)C(=O)N1CCC[C@H]1C(=O)N[C@@H](Cc1ccc(OC)cc1)C(=O)O` [compound 11], the “Emax PKC in VSMCs (% AngII)” value in assay [1] was determined as 104 % AngII. Besides, the EC50 in assay [1] (SEM) is 79.8 ± 17.7 nM; in assay [2] (SEM), 39.1 ± 11 nM. In addition, the “Emax Rho in VSMCs (% AngII)” value in assay [2] turned out to be 92 % AngII. Further, the Ki in assay [3] worked out at 0.23 ± 0.18 nM.
As to `CC[C@H](C)[C@H](NC(=O)[C@H](Cc1ccc(O)cc1)NC(=O)[C@@H](NC(=O)[C@H](CCCNC(=N)N)NC(=O)[C@@H](N)CC(=O)O)C(C)C)C(=O)N[C@@H](Cc1c[nH]cn1)C(=O)N1CCC[C@H]1C(=O)N[C@@H](Cc1ccc(OCc2ccccc2)cc1)C(=O)O` [compound 12], in assay [1], the “Emax PKC in VSMCs (% AngII)” value was 13 % AngII and the EC50 was over 10000 nM. Also, in assay [2], the “Emax Rho in VSMCs (% AngII)” value worked out at 12 % AngII and the EC50 was over 10000 nM. Further, the Ki in assay [3] amounted to 1.4 ± 0.2 nM.
